Measured values as given in US20110178072A1, “STEREOSPECIFICITY OF METHYLSULFINYL REDUCTION” (priority 2008, published 2011).

Key:
mouse MsrB2 = mouse MsrB2 (Mus musculus, UniProt Q78J03); assay: Reduction of methylsulfinyl compounds by mouse MsrB2 (HPLC/GC analysis); assay type: biochemical; conditions: in the presence of DTT
Procedure: (§1) The isothiocyanate group in R,S-sulforaphane reacts with sulfhydryls to form conjugated compounds. First, the compound was treated with excess DTT (which has two free sulfhydryl groups) to conjugate the isothiocyanate group of R,S-sulforaphane or S-sulforaphane with the sulfhydryl group of DTT and the resulting adducts were then used as substrates for mouse MsrA and mouse MsrB2. The reduction of the DTT-sulforaphane adduct was analyzed using HPLC analysis of the adduct with buffer (as control; FIG. 12A), mouse MsrB2 (FIG. 12B), and mouse MsrA (FIG. 12C). The arrows indicate the migration of the DTT-erucin adduct. […] FIG. 13 illustrates the HPLC analysis of the DTT-R-sulforaphane adduct incubated with buffer (as control) (FIG. 13A), mouse MsrA (FIG. 13B), and mouse MsrB2 (FIG. 13C). Again, the arrows show the migration of the DTT-erucin adduct.
(§2) Mesoridazine, which has a mild effect on treating schizophrenia, was examined to determine its reduction by yeast fRMsr, mouse MsrB2, and mouse MsrA (FIG. 14). The peak of m/z 387.6 corresponds to the molecular weight of mesoridazine and the peak of m/z 371.6 corresponds to the molecular weight of thioridazine. FIG. 14B details the HPLC analysis of mesoridazine incubated with mouse MsrB2 and DTT. FIG. 14C provides the HPLC analysis of mesoridazine incubated with yeast fRMsr and DTT. FIG. 14D illustrates the specific activities of various Msrs for the reduction of mesoridazine (left to right): mouse MsrA in the presence of DTT as a reductant, mouse MsrA in the presence of the thioredoxin reducing system, mouse MsrB2 in the presence of DTT, and yeast fRMsr in the presence of DTT.
(§3) The reduction of triclabendazole sulfoxide was examined. This compound has been used to treat liver fluke, Fasciola hepatica and Fasciola gigantica, in sheep, goat, and cattle as a form of triclabendazole. Triclabendazole can be metabolized to several different forms including triclabendazole sulfoxide, which is an oxidized form of methylsulfide group, in biological systems. FIG. 15A provides an HPLC analysis of triclabendazole sulfoxide incubated with mouse MsrA and DTT. The peak of m/z 375.2 and 377.2 correspond to the molecular weight of triclabendazole sulfoxide and the peak of m/z 359.2 and 361.2 correspond to the molecular weight of triclabendazole. FIG. 15B illustrates an HPLC analysis of triclabendazole sulfoxide incubated with mouse MsrB2 and DTT. FIG. 15C details an HPLC analysis of triclabendazole sulfoxide incubated with yeast fRMsr and DTT. FIG. 15D illustrates the specific activities of various Msrs for the reduction of triclabendazole sulfoxide (left to right): mouse MsrA in the presence of DTT as a reductant, mouse MsrA in the presence of the thioredoxin reducing system, mouse MsrB2 in the presence of DTT, and yeast fRMsr in the presence of DTT.
Another methylsulfinyl-containing drug, sulmazole, was tested as a substrate for Msrs. This drug is pharmacologically active as a cardiotonic agent and is a phosphodiesterase inhibitor. FIG. 16A details an HPLC analysis of sulmazole incubated with mouse MsrA and DTT. The peak of m/z 288.3 corresponds to the molecular weight of sulmazole and the peak of m/z 272.3 corresponds to the molecular weight of reduced form of sulmazole. FIG. 16B illustrates an HPLC analysis of sulmazole incubated with mouse MsrB2 and DTT. FIG. 16C provides an HPLC analysis of sulmazole incubated with yeast fRMsr and DTT. […]

mouse MsrA = biological target: T1, mouse MsrA (Mus musculus, UniProt Q9D6Y7); assay: Reduction of methylsulfinyl compounds by mouse MsrA (HPLC/GC analysis); assay type: biochemical
T1 sequence (Q9D6Y7 21-233): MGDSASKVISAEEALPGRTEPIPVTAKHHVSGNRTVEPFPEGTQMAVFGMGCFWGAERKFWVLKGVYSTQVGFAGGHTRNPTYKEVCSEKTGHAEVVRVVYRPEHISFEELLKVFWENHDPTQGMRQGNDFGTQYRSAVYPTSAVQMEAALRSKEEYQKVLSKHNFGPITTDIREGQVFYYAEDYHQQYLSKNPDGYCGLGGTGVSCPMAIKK
Procedure: as §1, §2, §3
Another methylsulfinyl-containing drug, sulmazole, was tested as a substrate for Msrs. This drug is pharmacologically active as a cardiotonic agent and is a phosphodiesterase inhibitor. FIG. 16A details an HPLC analysis of sulmazole incubated with mouse MsrA and DTT. The peak of m/z 288.3 corresponds to the molecular weight of sulmazole and the peak of m/z 272.3 corresponds to the molecular weight of reduced form of sulmazole. FIG. 16B illustrates an HPLC analysis of sulmazole incubated with mouse MsrB2 and DTT. FIG. 16C provides an HPLC analysis of sulmazole incubated with yeast fRMsr and DTT. FIG. 16D details the specific activities of various Msrs for the reduction of sulmazole (left to right): mouse MsrA in the presence of DTT as a reductant, mouse MsrA in the presence of the thioredoxin reducing system, mouse MsrB2 in the presence of DTT, and yeast fRMsr in the presence of DTT.
DMSO, which is used as a preservative for stem cells, solvent for drugs, and a drug itself with anti-inflammatory and free radical scavenging properties, was studied for its reduction by Msrs. FIG. 17A details a GC analysis of DMSO incubated with mouse MsrA and DTT. […]

yeast fRMsr = biological target: T2, yeast fRMsr (Saccharomyces cerevisiae, UniProt P36088); assay: Reduction of methylsulfinyl drugs by yeast fRMsr (HPLC analysis); assay type: biochemical; conditions: in the presence of DTT
T2 construct: His-tag (C); made in house; host or cells: E. coli BL21 (DE3), pET21b
T2 sequence (P36088 1-180): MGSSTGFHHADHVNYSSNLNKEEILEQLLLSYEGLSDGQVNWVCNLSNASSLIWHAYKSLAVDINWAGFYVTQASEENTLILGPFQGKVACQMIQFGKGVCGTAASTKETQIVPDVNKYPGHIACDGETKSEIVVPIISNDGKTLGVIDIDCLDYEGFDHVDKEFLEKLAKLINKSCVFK
Procedure: as §2
The reduction of triclabendazole sulfoxide was examined. This compound has been used to treat liver fluke, Fasciola hepatica and Fasciola gigantica, in sheep, goat, and cattle as a form of triclabendazole. Triclabendazole can be metabolized to several different forms including triclabendazole sulfoxide, which is an oxidized form of methylsulfide group, in biological systems. FIG. 15A provides an HPLC analysis of triclabendazole sulfoxide incubated with mouse MsrA and DTT. […]

SK-Hep1 cells = assay: Growth of SK-Hep1 cells in media supplemented or not with sodium selenite; assay type: cell-based, human; conditions: 100 nM; FBS-supplemented and insulin/transferrin media
Procedure: Growth of SK-Hep1 cells was analyzed in modified DMEM media containing Met, Met-SO, Met-RO, or Met-RSO (0.1 mM of each amino acid) or with no addition of these compounds. In addition, media were supplemented or not with 100 nM sodium selenite. Cells were analyzed at 0, 24, 48, and 72 hours. Another experiment involving SK-Hep1 cells was performed with cells grown in serum-free modified DMEM medium, containing insulin (5 μg/mL) and transferrin (10 μg/mL), Met or Met-RSO (0.1 mM of each amino acid) and 100 nM sodium selenite (or with no addition of this compound), and separately in 10% dialyzed FBS-containing DMEM medium containing 0.1 mM Met with 100 nM sodium selenite (or not). Cells were analyzed at 0, 24, 48, and 72 hours. Cell growth assays were carried out as described below.
Proliferation Assay—Cell growth was quantified using colorimetric MTS assay (Promega). Cells in regular DMEM medium were plated in 96-well plates at 5×10^3 cells/well, washed with PBS, and specialized DMEM media were added that contained Met, Met-SO, Met-RO, or Met-RSO 24 hours after plating. […] After 90 minutes of incubation at 37° C. in the atmosphere of 5% CO2, cell proliferation was measured at indicated time periods from 0 to 96 hours at 450 nm in a plate reader. […]

mouse MsrB1-Cys = biological target: T3, mouse MsrB1-Cys (Mus musculus, UniProt Q9JLC3, U95C); assay: Reduction of DMSO by mouse MsrB1-Cys (GC analysis); assay type: biochemical; conditions: in the presence of DTT; selenocysteine replaced with cysteine
T3 sequence (Q9JLC3 1-116 U95C): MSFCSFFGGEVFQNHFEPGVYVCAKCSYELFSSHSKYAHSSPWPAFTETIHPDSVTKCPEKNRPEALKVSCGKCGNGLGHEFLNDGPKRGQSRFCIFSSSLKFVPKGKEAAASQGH
Procedure: DMSO, which is used as a preservative for stem cells, solvent for drugs, and a drug itself with anti-inflammatory and free radical scavenging properties, was studied for its reduction by Msrs. FIG. 17A details a GC analysis of DMSO incubated with mouse MsrA and DTT. FIG. 17B provides a GC analysis of DMSO incubated with mouse MsrB2 and DTT. FIG. 17C illustrates a GC analysis of DMSO incubated with mouse MsrB1-Cys and DTT. FIG. 17D provides specific activities of various Msrs for the reduction of DMSO (left to right): mouse MsrA in the presence of DTT as a reductant, mouse MsrB2 in the presence of DTT, and mouse MsrB1-Cys in the presence of DTT.

[1] = thioredoxin system as reductant

Chain of mouse MsrB2 (Q78J03 43-175): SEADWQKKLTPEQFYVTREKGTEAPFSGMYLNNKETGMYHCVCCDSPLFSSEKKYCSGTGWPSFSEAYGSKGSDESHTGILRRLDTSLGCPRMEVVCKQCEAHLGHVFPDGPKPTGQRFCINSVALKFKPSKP

Row | Compound | Reduction by mouse MsrB2 (mouse MsrB2) | Reduction by mouse MsrA (mouse MsrA; DTT as a reductant) | Reduction by mouse MsrA (mouse MsrA; [1]) | Reduction by yeast fRMsr (yeast fRMsr) | Influence on cell growth on Met and Met sulfoxide (SK-Hep1 cells) | Reduction by mouse MsrB1-Cys (mouse MsrB1-Cys)
1 | CN1CCCCC1CCN1c2ccccc2Sc2ccc([S+](C)[O-])cc21 (stereo not drawn) [Mesoridazine] | no activity was observed | reduced to thioridazine | reduced to thioridazine | no activity was observed | – | –
2 | O=[Se]([O-])[O-].[Na+].[Na+] [sodium selenite] | – | – | – | – | did not influence cell growth | –
3 | COc1cc([S+](C)[O-])ccc1-c1nc2ncccc2[nH]1 (stereo not drawn) [sulmazole, Sulmazole] | not reduced | specifically reduced | specifically reduced | not reduced | – | –
4 | Dimethylsulfoxide [DMSO] | very inefficient substrate | can be reduced | – | – | – | very inefficient substrate
